This is an account of results in PMC5218480 (PLoS ONE, 2017).

The subject of the assay is MV-4-11 cells. In words: Gene expression microarray analysis (Affymetrix PrimeView) and GSEA. The following applies: MV-4-11 cells, 48 hours. Details: RFU PODN (11730768_x_at) / Fold change /veh PODN (11730768_x_at) / RFU LINC00158 (11744669_a_at) / Fold change /veh LINC00158 (11744669_a_at) / RFU DUSP10 (11751237_a_at) / Fold change /veh DUSP10 (11751237_a_at) / RFU ID3 (11757404_x_at) / Fold change /veh ID3 (11757404_x_at) / RFU PLEKHG5 (11737974_s_at) / Fold change /veh PLEKHG5 (11737974_s_at) / RFU LRRC4B (11730491_at) / Fold change /veh LRRC4B (11730491_at) / RFU GIMAP4 (11747438_a_at) / Fold change /veh GIMAP4 (11747438_a_at) / RFU KRT8 (11758183_x_at) / Fold change /veh KRT8 (11758183_x_at) / RFU CNN1 (11734310_a_at) / Fold change /veh CNN1 (11734310_a_at) / RFU VPS37D (11726825_at) / Fold change /veh VPS37D (11726825_at) / RFU C10orf10 (11716522_x_at) / Fold change /veh C10orf10 (11716522_x_at) / RFU KIR2DL2 /// KIR2DL4 /// KIR2DL5A /// KIR2DL5B /// KIR2DS1 /// KIR2DS2 /// KIR2DS3 /// KIR2DS4 /// KIR3DL3 /// KIR3DL3 /// KIR3DS1 (11738374_at) / Fold change /veh KIR2DL2 /// KIR2DL4 /// KIR2DL5A /// KIR2DL5B /// KIR2DS1 /// KIR2DS2 /// KIR2DS3 /// KIR2DS4 /// KIR3DL3 /// KIR3DL3 /// KIR3DS1 (11738374_at) / RFU C1QL1 (11718748_at) / Fold change /veh C1QL1 (11718748_at) / RFU TMPRSS4 (11747572_a_at) / Fold change /veh TMPRSS4 (11747572_a_at) / RFU HAMP (11756126_x_at) / Fold change /veh HAMP (11756126_x_at) / RFU RNFT2 (11725882_a_at) / Fold change /veh RNFT2 (11725882_a_at) / RFU NR4A2 (11747474_a_at) / Fold change /veh NR4A2 (11747474_a_at) / RFU ABCC12 (11746883_a_at) / Fold change /veh ABCC12 (11746883_a_at) / RFU TMEM136 (11760407_x_at) / Fold change /veh TMEM136 (11760407_x_at) / RFU CLDN22 /// WWC2 (11732394_at) / Fold change /veh CLDN22 /// WWC2 (11732394_at) / RFU HLA-DPB1 (11760878_x_at) / Fold change /veh HLA-DPB1 (11760878_x_at) / RFU SPINT1 (11716480_a_at) / Fold change /veh SPINT1 (11716480_a_at) / RFU GAP43 (11754022_s_at) / Fold change /veh GAP43 (11754022_s_at) / RFU A4GNT (11735810_at) / Fold change /veh A4GNT (11735810_at) / RFU PRB3 (11715151_x_at) / Fold change /veh PRB3 (11715151_x_at) / RFU TUBB4B (11761932_at) / Fold change /veh TUBB4B (11761932_at) / RFU CAPN14 (11732068_a_at) / Fold change /veh CAPN14 (11732068_a_at) / RFU TMCC2 (11721928_a_at) / Fold change /veh TMCC2 (11721928_a_at) / RFU IRGQ (11745062_a_at) / Fold change /veh IRGQ (11745062_a_at) / RFU FAM174B (11720279_a_at) / Fold change /veh FAM174B (11720279_a_at) / RFU TMPRSS4 (11748680_a_at) / Fold change /veh TMPRSS4 (11748680_a_at) / RFU FAM212B (11763350_a_at) / Fold change /veh FAM212B (11763350_a_at) / RFU PLEKHG5 (11743358_a_at) / Fold change /veh PLEKHG5 (11743358_a_at) / RFU ZSCAN30 (11745921_a_at) / Fold change /veh ZSCAN30 (11745921_a_at) / RFU CMKLR1 (11741424_a_at) / Fold change /veh CMKLR1 (11741424_a_at) / RFU LOC101060620 /// MAPK8IP1 (11723275_at) / Fold change /veh LOC101060620 /// MAPK8IP1 (11723275_at) / RFU SPTSSB (11747773_x_at) / Fold change /veh SPTSSB (11747773_x_at) / RFU PRSS12 (11739890_at) / Fold change /veh PRSS12 (11739890_at) / RFU BIN1 (11741810_x_at) / Fold change /veh BIN1 (11741810_x_at) / RFU WNT11 (11732464_a_at) / Fold change /veh WNT11 (11732464_a_at) / RFU C10orf10 (11716521_a_at) / Fold change /veh C10orf10 (11716521_a_at) / RFU C5orf56 (11738089_at) / Fold change /veh C5orf56 (11738089_at) / RFU CYB561 (11721691_x_at) / Fold change /veh CYB561 (11721691_x_at) / RFU ANKRD19P (11752326_a_at) / Fold change /veh ANKRD19P (11752326_a_at) / RFU OR2T12 /// OR2T33 /// OR2T8 (11738714_s_at) / Fold change /veh OR2T12 /// OR2T33 /// OR2T8 (11738714_s_at) / RFU VCAN (11748164_a_at) / Fold change /veh VCAN (11748164_a_at) / RFU JSRP1 (11732532_at) / Fold change /veh JSRP1 (11732532_at) / RFU KRTAP10-11 (11738290_x_at) / Fold change /veh KRTAP10-11 (11738290_x_at) / RFU MYO3A (11730013_a_at) / Fold change /veh MYO3A (11730013_a_at) / RFU EBF3 (11725865_a_at) / Fold change /veh EBF3 (11725865_a_at) / RFU CAMK2N1 (11719241_x_at) / Fold change /veh CAMK2N1 (11719241_x_at) / RFU C5orf56 (11738088_a_at) / Fold change /veh C5orf56 (11738088_a_at) / RFU OLFML3 (11715873_a_at) / Fold change /veh OLFML3 (11715873_a_at) / RFU LOC100653217 /// NTM (11731650_a_at) / Fold change /veh LOC100653217 /// NTM (11731650_a_at) / RFU MAPK11 (11762145_a_at) / Fold change /veh MAPK11 (11762145_a_at) / RFU FIZ1 (11724087_x_at) / Fold change /veh FIZ1 (11724087_x_at) / RFU OASL (11726364_x_at) / Fold change /veh OASL (11726364_x_at) / RFU SOX15 (11748057_x_at) / Fold change /veh SOX15 (11748057_x_at) / RFU CD79A (11719716_a_at) / Fold change /veh CD79A (11719716_a_at) / RFU HIST1H1D (11736915_at) / Fold change /veh HIST1H1D (11736915_at) / RFU CASKIN2 (11723855_a_at) / Fold change /veh CASKIN2 (11723855_a_at) / RFU LOC730098 (11760151_x_at) / Fold change /veh LOC730098 (11760151_x_at) / RFU OR4N2 (11742367_at) / Fold change /veh OR4N2 (11742367_at) / RFU PRRT2 (11749266_a_at) / Fold change /veh PRRT2 (11749266_a_at) / RFU SNX32 (11753110_a_at) / Fold change /veh SNX32 (11753110_a_at) / RFU CDHR5 (11726645_a_at) / Fold change /veh CDHR5 (11726645_a_at) / RFU RCAN1 (11760418_a_at) / Fold change /veh RCAN1 (11760418_a_at) / RFU FAM167A (11723789_a_at) / Fold change /veh FAM167A (11723789_a_at) / RFU FAM26E (11764081_at) / Fold change /veh FAM26E (11764081_at) / RFU ISYNA1 (11749810_s_at) / Fold change /veh ISYNA1 (11749810_s_at) / RFU ACY1 (11761880_at) / Fold change /veh ACY1 (11761880_at) / RFU 11764098_at / Fold change /veh 11764098_at / RFU SAMD14 (11745864_x_at) / Fold change /veh SAMD14 (11745864_x_at) / RFU NPB (11741838_a_at) / Fold change /veh NPB (11741838_a_at) / RFU TMPRSS6 (11731388_a_at) / Fold change /veh TMPRSS6 (11731388_a_at) / RFU KRTAP10-2 (11738614_at) / Fold change /veh KRTAP10-2 (11738614_at) / RFU ARHGAP8 /// PRR5-ARHGAP8 (11727945_x_at) / Fold change /veh ARHGAP8 /// PRR5-ARHGAP8 (11727945_x_at) / RFU KRTAP5-7 /// NADSYN1 (11734609_at) / Fold change /veh KRTAP5-7 /// NADSYN1 (11734609_at) / RFU RASL12 (11751679_a_at) / Fold change /veh RASL12 (11751679_a_at) / RFU CDKN2B (11736163_a_at) / Fold change /veh CDKN2B (11736163_a_at) / RFU PRF1 (11729649_at) / Fold change /veh PRF1 (11729649_at) / RFU, ZNF638 /// ZNF638-IT1 / Fold change vs veh, ZNF638 /// ZNF638-IT1 / RFU, PANK3 / Fold change vs veh, PANK3 / RFU, SH3YL1 / Fold change vs veh, SH3YL1 / RFU, ZEB2 / Fold change vs veh, ZEB2 / RFU, NRIP1 / Fold change vs veh, NRIP1 / RFU, PTTG1IP / Fold change vs veh, PTTG1IP / RFU, CAPN2 / Fold change vs veh, CAPN2 / RFU, MED14 / Fold change vs veh, MED14 / RFU, SNORA58 / Fold change vs veh, SNORA58 / RFU, C1orf63 / Fold change vs veh, C1orf63 / RFU, LRRFIP1 / Fold change vs veh, LRRFIP1 / RFU, NDUFAF7 / Fold change vs veh, NDUFAF7 / RFU, SLC12A2 / Fold change vs veh, SLC12A2 / RFU, IBTK / Fold change vs veh, IBTK / RFU, ESF1 / Fold change vs veh, ESF1 / Fold change vs veh, TMEM50B / RFU, TAOK1 / Fold change vs veh, TAOK1 / RFU, ACBD3 / Fold change vs veh, ACBD3 / RFU, TMA16 / Fold change vs veh, TMA16 / RFU, RWDD3 / Fold change vs veh, RWDD3 / RFU, BCAT1 / Fold change vs veh, BCAT1 / RFU, EDEM3 / Fold change vs veh, EDEM3 / RFU, TMEM33 / Fold change vs veh, TMEM33 / RFU, WDR75 / Fold change vs veh, WDR75 / RFU, AHCTF1 / Fold change vs veh, AHCTF1 / RFU, TFRC / Fold change vs veh, TFRC / RFU, ZDHHC17 / Fold change vs veh, ZDHHC17 / RFU, NOM1 / Fold change vs veh, NOM1 / RFU, ARL8B / Fold change vs veh, ARL8B / RFU, ZBTB11 / Fold change vs veh, ZBTB11 / RFU, TAMM41 / Fold change vs veh, TAMM41 / RFU, KIAA1704 /// LOC100996395 / Fold change vs veh, KIAA1704 /// LOC100996395 / RFU, ING1 / Fold change vs veh, ING1 / RFU, TRMT61B / Fold change vs veh, TRMT61B / RFU, FUBP3 / Fold change vs veh, FUBP3 / RFU, TP53 / Fold change vs veh, TP53 / RFU, TNKS2 / Fold change vs veh, TNKS2 / RFU, ZFP14 / Fold change vs veh, ZFP14 / RFU, ACTR2 / Fold change vs veh, ACTR2 / RFU, PPP3R1 / Fold change vs veh, PPP3R1 / RFU, PIK3R1 / Fold change vs veh, PIK3R1 / RFU, HNRNPA1 / Fold change vs veh, HNRNPA1 / RFU, RNF170 / Fold change vs veh, RNF170 / RFU, ZNF28 / Fold change vs veh, ZNF28 / RFU, RNGTT / Fold change vs veh, RNGTT / RFU, OGT / Fold change vs veh, OGT / RFU, BRD1 / Fold change vs veh, BRD1 / RFU, MARS / Fold change vs veh, MARS / RFU, ZNF655 / Fold change vs veh, ZNF655 / RFU, FAHD1 / Fold change vs veh, FAHD1 / RFU, BDP1 / Fold change vs veh, BDP1 / RFU, LRRCC1 / Fold change vs veh, LRRCC1 / RFU, ARID1A / Fold change vs veh, ARID1A / RFU, ZNF146 / Fold change vs veh, ZNF146 / RFU, ZNF330 / Fold change vs veh, ZNF330 / RFU, GPN3 / Fold change vs veh, GPN3 / RFU, C9orf123 / Fold change vs veh, C9orf123 / RFU, N4BP2L2 / Fold change vs veh, N4BP2L2 / RFU, ARFIP1 / Fold change vs veh, ARFIP1 / RFU, FAM179B / Fold change vs veh, FAM179B / RFU, BCL10 / Fold change vs veh, BCL10 / RFU, UHRF1BP1L / Fold change vs veh, UHRF1BP1L / RFU, BET1 / Fold change vs veh, BET1 / RFU, CNOT2 / Fold change vs veh, CNOT2 / RFU, ZNF268 / Fold change vs veh, ZNF268 / Fold change vs veh, ZNF507 / RFU, DGCR2 / Fold change vs veh, DGCR2 / RFU, WDSUB1 / Fold change vs veh, WDSUB1 / Fold change vs veh, HSP90B1 /// MIR3652 / RFU, ADSS / Fold change vs veh, ADSS / RFU, GK / Fold change vs veh, GK / RFU, ZNF148 / Fold change vs veh, ZNF148 / RFU, TAF9 / Fold change vs veh, TAF9 / RFU, SLC1A5 / Fold change vs veh, SLC1A5 / RFU, SLMO2 / Fold change vs veh, SLMO2 / RFU, ABCC4 / Fold change vs veh, ABCC4 / RFU, LOC101060439 /// RAP1B / Fold change vs veh, LOC101060439 /// RAP1B / RFU, RFX7 / Fold change vs veh, RFX7 / RFU, GTPBP10 / Fold change vs veh, GTPBP10 / RFU, CNEP1R1 / Fold change vs veh, CNEP1R1 / RFU, BIVM-ERCC5 /// ERCC5 / Fold change vs veh, BIVM-ERCC5 /// ERCC5 / RFU, ILF3 / Fold change vs veh, ILF3 / RFU 11762660_at / Fold change /veh 11762660_at / RFU VCAN (11757783_s_at) / Fold change /veh VCAN (11757783_s_at) / RFU DDX43 (11728927_at) / Fold change /veh DDX43 (11728927_at) / RFU KRT8 (11758188_x_at) / Fold change /veh KRT8 (11758188_x_at) / RFU NKD1 (11759106_at) / Fold change /veh NKD1 (11759106_at) / RFU SRD5A1 (11742802_a_at) / Fold change /veh SRD5A1 (11742802_a_at) / RFU TPSAB1 /// TPSB2 (11721975_s_at) / Fold change /veh TPSAB1 /// TPSB2 (11721975_s_at) / RFU GSTM3 (11746129_a_at) / Fold change /veh GSTM3 (11746129_a_at) / RFU IL23R (11737362_x_at) / Fold change /veh IL23R (11737362_x_at) / RFU TMEM51 (11727254_a_at) / Fold change /veh TMEM51 (11727254_a_at) / RFU PIWIL2 (11732686_x_at) / Fold change /veh PIWIL2 (11732686_x_at) / RFU ORM1 (11744905_x_at) / Fold change /veh ORM1 (11744905_x_at) / RFU CCDC152 (11743942_at) / Fold change /veh CCDC152 (11743942_at) / RFU ECM1 (11717891_a_at) / Fold change /veh ECM1 (11717891_a_at) / RFU IL23R (11748794_a_at) / Fold change /veh IL23R (11748794_a_at) / RFU TNFAIP8L3 (11732012_x_at) / Fold change /veh TNFAIP8L3 (11732012_x_at) / RFU MBOAT4 (11741988_at) / Fold change /veh MBOAT4 (11741988_at) / RFU 11764193_at / Fold change /veh 11764193_at / RFU TMEM53 (11763286_at) / Fold change /veh TMEM53 (11763286_at) / RFU MAGEB2 (11727129_at) / Fold change /veh MAGEB2 (11727129_at) / RFU TMEM200A (11744735_a_at) / Fold change /veh TMEM200A (11744735_a_at) / RFU CCDC152 (11751479_a_at) / Fold change /veh CCDC152 (11751479_a_at) / RFU FAM211A (11726209_a_at) / Fold change /veh FAM211A (11726209_a_at) / RFU RGS16 (11746705_a_at) / Fold change /veh RGS16 (11746705_a_at) / RFU VCAN (11755009_s_at) / Fold change /veh VCAN (11755009_s_at) / RFU RHOB (11743442_s_at) / Fold change /veh RHOB (11743442_s_at) / RFU RGS16 (11720943_a_at) / Fold change /veh RGS16 (11720943_a_at) / RFU RGS16 (11720944_at) / Fold change /veh RGS16 (11720944_at) / RFU, VPS4B / Fold change vs veh, VPS4B / RFU, CREB1 / Fold change vs veh, CREB1 / RFU, DNAJC13 / Fold change vs veh, DNAJC13 / RFU, GNAQ / Fold change vs veh, GNAQ / RFU, CDK5R1 / Fold change vs veh, CDK5R1 / RFU, ZRANB3 / Fold change vs veh, ZRANB3 / RFU, CUL4A / Fold change vs veh, CUL4A / RFU, CCNY / Fold change vs veh, CCNY / RFU, UFL1 / Fold change vs veh, UFL1 / RFU, COG3 / Fold change vs veh, COG3 / RFU, DIAPH2 / Fold change vs veh, DIAPH2 / RFU, SKA2 / Fold change vs veh, SKA2 / RFU, AFF3 / Fold change vs veh, AFF3 / RFU, LMF1 / Fold change vs veh, LMF1 / RFU, IPO11 / Fold change vs veh, IPO11 / RFU, DFFB / Fold change vs veh, DFFB / RFU, FOXP1 / Fold change vs veh, FOXP1 / RFU, CARD8 / Fold change vs veh, CARD8 / RFU, STRN3 / Fold change vs veh, STRN3 / RFU, ADK / Fold change vs veh, ADK / RFU, RASSF2 / Fold change vs veh, RASSF2 / RFU, WIPF1 / Fold change vs veh, WIPF1 / RFU, LARP1B / Fold change vs veh, LARP1B / RFU, RASA1 / Fold change vs veh, RASA1 / RFU, RB1 / Fold change vs veh, RB1 / RFU, PPFIA1 / Fold change vs veh, PPFIA1 / RFU, MAT2A / Fold change vs veh, MAT2A / RFU, CCT5 / Fold change vs veh, CCT5 / RFU, WDR92 / Fold change vs veh, WDR92 / RFU, CUX1 / Fold change vs veh, CUX1 / RFU, TTC7A / Fold change vs veh, TTC7A / RFU, TMEM135 / Fold change vs veh, TMEM135 / RFU, DEPTOR / Fold change vs veh, DEPTOR / RFU, CPM / Fold change vs veh, CPM / RFU, DNAJB6 / Fold change vs veh, DNAJB6 / RFU, CACNA2D3 / Fold change vs veh, CACNA2D3 / RFU, DTX4 / Fold change vs veh, DTX4 / RFU, TFCP2 / Fold change vs veh, TFCP2 / RFU, GMCL1 /// GMCL1P1 / Fold change vs veh, GMCL1 /// GMCL1P1 / RFU, AEBP2 / Fold change vs veh, AEBP2 / RFU, SNHG1 /// SNORD22 /// SNORD25 /// SNORD26 /// SNORD27 /// SNORD28 /// SNORD29 /// SNORD31 / Fold change vs veh, SNHG1 /// SNORD22 /// SNORD25 /// SNORD26 /// SNORD27 /// SNORD28 /// SNORD29 /// SNORD31 / Fold change (Aza/veh), C12orf56 (ProbeSet 11735607_a_at) / Fold change (ACY-1035/veh), C12orf56 (ProbeSet 11735607_a_at) / Fold change (Aza/veh), FGFR1OP (ProbeSet 11751329_s_at) / Fold change (ACY-1035/veh), FGFR1OP (ProbeSet 11751329_s_at) / Fold change (Aza/veh), VPS36 (ProbeSet 11739960_a_at) / Fold change (ACY-1035/veh), VPS36 (ProbeSet 11739960_a_at) / RFU SYPL1 (11715823_x_at) / Fold change /veh SYPL1 (11715823_x_at) / RFU IGFBP7 (11715501_s_at) / Fold change /veh IGFBP7 (11715501_s_at) / RFU REEP3 (11722064_at) / Fold change /veh REEP3 (11722064_at) / RFU IGLL1 (11728026_x_at) / Fold change /veh IGLL1 (11728026_x_at): dose or concentration left out as unconfirmed. The format is cell-based, human.

Take `Nc1ccc(-c2cccs2)cc1NC(=O)c1ccc2c(c1)cc(C1CC1)n2CCN1CCOCC1` [ACY-1035]: the “RFU LOC101060620 /// MAPK8IP1 (11723275_at)” value worked out at 10.15 RFU.
